Measurements as given in patent US12344610B2, “APOL1 inhibitors and methods of use” (Maze Therapeutics, Inc., priority 2022, dated 2025).

What follows are compounds tested on human immortalized podocytes inducibly expressing APOL1 G2 (assay: APOL1 G2 podocyte cell rescue assay (Example B4)). Conditions: Homo sapiens, differentiated human podocytes, doxycycline-induced APOL1 G2, CellTiter-Glo; geometric mean of at least 2 runs; † = single run.
Format: cell-based
How it was run: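 Differentiated hTERT-immortalized podocytes (clone D10) with doxycycline-inducible C-terminally HiBiT-tagged APOL1 G2, 6,000 cells/well, treated with doxycycline plus 8-point 3-fold compound series (0.4% DMSO) for 95 h at 37 °C. Viability by CellTiter-Glo luminescence; EC50 as geometric mean of ≥2 runs, each in duplicate.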

Question: Which EC50 does the source give for O=C1Nc2ccc(Cl)cc2C12CCN(CCOc1cnc(N3CC(O)C3)nc1)CC2 [Compound 301, 5-chloro-1′-(2-{[2-(3-hydroxyazetidin-1-yl)pyrimidin-5-yl]oxy}ethyl)-1,2-dihydrospiro[indole-3,4′-piperidin]-2-one] here?
Answer: Its EC50 is 66.9 nM.

Question: For CC(C)(O)c1ncc(OCCN2CCC3(CC2)C(=O)Nc2ccc(Cl)cc23)cn1 [Compound 305, 5-chloro-1′-(2-{[2-(2-hydroxypropan-2-yl)pyrimidin-5-yl]oxy}ethyl)-1,2-dihydrospiro[indole-3,4′-piperidin]-2-one], which EC50 is on record?
Answer: Its EC50 is 15 nM.

Question: How did the EC50 turn out when CC1(O)CN(c2nccc3cc(OCCN4CCC5(CC4)C(=O)Nc4ccc(Cl)cc45)cnc23)C1 [Compound 306, 5-chloro-1′-(2-{[8-(3-hydroxy-3-methylazetidin-1-yl)-1,7-naphthyridin-3-yl]oxy}ethyl)-1,2-dihydrospiro[indole-3,4′-piperidin]-2-one] was run?
Answer: Its EC50 is 1.94 nM.

Question: For O=C1Nc2ccc(Cl)cc2C12CCN(CCOc1cnc3c(N4CC(O)C4)nccc3c1)CC2 [Compound 314, 5-chloro-1′-(2-{[8-(3-hydroxyazetidin-1-yl)-1,7-naphthyridin-3-yl]oxy}ethyl)-1,2-dihydrospiro[indole-3,4′-piperidin]-2-one], which EC50 is on record?
Answer: Its EC50 is 4.57 nM.
